The text below walks through data of paper PMC6155728, “Design, Synthesis and Evaluation of Indene Derivatives as Retinoic Acid Receptor α Agonists” (Molecules : A Journal of Synthetic Chemistry and Natural …, 2016).

Series [1] relates to HL60 cells. Put plainly: Inhibition of cell proliferation assay (SRB), HL60. Particulars: Homo sapiens, read-out: IC50 cell proliferation HL60. The class given is cell-based. How it is done: (§1) Human promyelocytic leukemia cell lines HL60 and NB4 were employed to determine the effects of the derivatives on cell proliferation. […] Alkoxy-substitution at the 2-position (i.e., compounds 36f, 36g) harmed the cell proliferation inhibitory activity of the compounds in both cell lines while the isopropyl group at the same position (compound 36h) is favourable. The extension of the π system by an alkenyl bond or a ketone group, as in 36j–l, didn’t affect the compounds’ inhibitory activity in HL60 cells but nulified their activity in NB4 cells. The indene ring tolerates the dual-introduction of a small alkoxyl and an alkyl group at 1- and 2-position, respectively, to retain the antiproliferative activity in HL60 cells.
(§2) Cells were seeded in 96-well plates (Corning Inc.) with a density of 2500 cells (NB4 or HL60) per well for overnight. Then, cells were exposed to each of the test compounds 36a–36p in gradient concentration of 10^−9, 10^−8, 10^−7, 10^−6, 10^−5 mol/L. Control cultures were treated with the same volume of DMSO. After 72 hours of incubation, the cell density in each well were fixed by trichloroacetic acid and then measured using the SRB (sulforhodamine B) method. After rinsing, the SRB was solubilized in TrisHCl, and the optical density of each culture was determined with a Bio-Tek Elx 800 absorbance microplate reader (BioTek, Shoreline, WA, USA). The OD of the treated cultures was divided by that of the control cultures treated with solvent alone.

Series [2] relates to HL60 cells. Put plainly: Cell differentiation assay (CD11b, FACS), HL60. The class given is cell-based, human. As to the method:
(§3) The effects of 36a–g on the differentiation of HL60 and NB4 cells were then assessed.
(§4) Cells (1 × 10^6/mL) were treated with compounds at different concentrations based on IC50 in Table 2 […]. After the treatment, cells were washed twice with PBS and then fixed with 75% alcohol overnight at −20 °C. The fixed cells were washed with PBS and blocked with 95 μL 3% BSA in PBS for 45 min at room temperature. The cells were incubated with 5 μL CD11b-PE at 4 °C for 45 min with protection from light. The antigens were then determined by a FACSCalibur flow cytometer (BD Biosciences Pharmingen, San Diego, CA, USA). The percentages of positive cells were quantitated using CellQuest Pro software. Cells stained with mouse IgG-PE served as negative controls. Both CD11b-PE and mouse IgG-PE antibodies were purchased from BD Biosciences. At least 10,000 cells were analyzed for each data point.

Series [3] has as its system NB4 cells. Put plainly: Inhibition of cell proliferation assay (SRB), NB4. The format is cell-based, human. Particulars: read-out: IC50 cell proliferation NB4. How it is done:
as §1, §2

The subject of series [4] is NB4 cells. Put plainly: Cell differentiation assay (CD11b, FACS), NB4. The class given is cell-based, human. How it is done: as §3, §4
The target of the next series is T1, RARα (RAR alpha LBD-GST) (Homo sapiens, UniProt P10276).
T1 construct: A mixture of 5 nM RAR alpha LBD-GST, 5 nM TbAnti-GST antibody, 50 nM Fluorescein-D22 was added to the wells; purchased Invitrogen
T1 sequence (P10276 183-417 limits assumed): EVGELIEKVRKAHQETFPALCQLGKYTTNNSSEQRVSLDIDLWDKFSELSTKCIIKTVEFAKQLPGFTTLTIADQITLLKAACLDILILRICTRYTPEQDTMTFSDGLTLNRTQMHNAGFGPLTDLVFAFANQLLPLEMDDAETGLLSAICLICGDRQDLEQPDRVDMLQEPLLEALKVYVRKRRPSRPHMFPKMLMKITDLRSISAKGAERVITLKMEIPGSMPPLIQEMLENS
Put plainly: Receptor binding assay (LanthaScreen TR-FRET RAR alpha Coactivator Assay). Particulars: 1 h incubation, AM80 positive control, read-out: RARα binding affinity EC50. As to the method: The obtained target compounds were tested for their binding affinities to RARα using a time resolved fluorescence resonance energy transfer (TR-FRET) assay with AM80 as the positive control.
All synthesized compounds were tested for their binding affinity by using time resolved fluorescence resonance energy transfer (TR-FRET) assay, which used a LanthaScreen® TR-FRET RAR alpha Coactivator Assay Kit (Invitrogen, Carlsbad, CA, USA). Briefly, all experiments were performed in black 384-well low-volume plates (Corning Inc., Corning, NY, USA) in dark at room temperature. The final assay volume was 20 μL. All dilutions were made in assay buffer (TR-FRET Coregulator Buffer D). The final DMSO concentration was 1%. A mixture of 5 nM RAR alpha LBD-GST, 5 nM TbAnti-GST antibody, 50 nM Fluorescein-D22 was added to the wells. The only variable is the agonist concentration (6.1 × 10^−11~1.0 × 10^−6 M final concentrations of each retinoid). […] Data were analyzed by using GraphPad Prism software (GraphPad Software, Inc., La Jolla, CA, USA) and FRET signal was determined for all treatments by dividing 520 nm/495 nm signals. Graphs plotted as fold change of FRET signal for compounds treatment over DMSO only treatment.

Setting [5] is: HL-60, HL60 cells, 72 hours, SRB.
Setting [6] is: Homo sapiens, NB-4, 72 h, NB4 cells, 72 hours, SRB.

Usually EC50 stands for the concentration needed to bring the measured effect to its halfway point. For orientation: melting point means the temperature, or range, at which the solid turns liquid.

Several values for one entry are separate records, joined by “and”; a condition that tells them apart may be missing. Identical values can stand only once. Like-named read-outs stand apart in the source and are kept apart here.

Turning to `CC1(C)CCC(C)(C)c2cc(NC(=O)c3ccc(C(=O)O)cc3)ccc21` [AM80, reference compound], the IC50 in the series with HL60 cells [1] (HL-60, 72 h) worked out at 170 nM; with NB4 cells [3] (Homo sapiens, NB-4, 72 h), 13.3 µM. For the same molecule, the “CD11b (%) HL60” value in the series on HL60 cells [2] (10 μM) was 4.59 (10 μM) %. Further, the “CD11b (%) NB4” value with NB4 cells [4] (10 μM) is listed as 94.93 (10 μM) %.
The molecule `O=C(O)c1ccc(C(=O)Nc2ccc3c(c2)CCC3)cc1` [Compound 36a, 4-((2,3-Dihydro-1H-inden-5-yl)carbamoyl)benzoic acid] came in with a melting point above 250 °C. Also, the IC50 in the series with HL60 cells [1] (setting [5]) was above 50000 nM. Also, the EC50 at RARα (RAR alpha LBD-GST) came out at 12.1 nM. The “CD11b (%) HL60” value with HL60 cells [2] (50 μM) was 1.13 (50 μM) %. The IC50 in the series with NB4 cells [3] (setting [6]) was 6.97 µM. In the series with NB4 cells [4] (5 μM), the “CD11b (%) NB4” value is 0.97 (5 μM) %.
Regarding `COC1CCc2ccc(NC(=O)c3ccc(C(=O)O)cc3)cc21` (stereo not drawn) [Compound 36b, 4-((3-Methoxy-2,3-dihydro-1H-inden-5-yl)carbamoyl)benzoic acid], the melting point was above 250 °C. The IC50 in the series with HL60 cells [1] (setting [5]) was determined as 130 nM. The EC50 at RARα (RAR alpha LBD-GST) amounted to 130 nM. In addition, the IC50 with NB4 cells [3] (setting [6]) stood at 35.4 µM.
`CCOC1CCc2ccc(NC(=O)c3ccc(C(=O)O)cc3)cc21` (stereo not drawn) [Compound 36c] yielded a melting point above 250 °C.
`CC(C)OC1CCc2ccc(NC(=O)c3ccc(C(=O)O)cc3)cc21` (stereo not drawn) [Compound 36d, 4-((3-Isopropoxy-2,3-dihydro-1H-inden-5-yl)carbamoyl)benzoic acid] showed a melting point above 250 °C. The IC50 in the series on HL60 cells [1] (setting [5]) is above 50000 nM. The EC50 on RARα (RAR alpha LBD-GST) came out at 24.2 nM. Moreover, the “CD11b (%) HL60” value in the series on HL60 cells [2] (50 μM) is given as 3.77 (50 μM) %. Further, the IC50 in the series on NB4 cells [3] (setting [6]) was 1.86 to 4.09 µM. Also, the IC50 with NB4 cells [3] (NB4 cells, 72 hours, SRB) turned out to be 1.86 µM. The “CD11b (%) NB4” value in the series on NB4 cells [4] (5 μM) is 68.88% and 68.88 (5 μM) %.
Take `CCCCOC1CCc2ccc(NC(=O)c3ccc(C(=O)O)cc3)cc21` (stereo not drawn) [Compound 36e, 4-((3-Butoxy-2,3-dihydro-1H-inden-5-yl)carbamoyl)benzoic acid]: the melting point was above 250 °C. In the series on HL60 cells [1] (setting [5]), the IC50 was above 50000 nM. For the same molecule, the concentration for a half-maximal effect (EC50) on RARα (RAR alpha LBD-GST) came to 14.9 nM. The “CD11b (%) HL60” value in the series on HL60 cells [2] (50 μM) was 2.87 (50 μM) %. In the series with NB4 cells [4] (5 μM), the “CD11b (%) NB4” value is 15.42 (5 μM) %.
For the molecule `COC1Cc2ccc(NC(=O)c3ccc(C(=O)O)cc3)cc2C1` (stereo not drawn) [Compound 36f, 4-((2-Methoxy-2,3-dihydro-1H-inden-5-yl)carbamoyl)benzoic acid], the melting point was above 250 °C. Besides, the IC50 in the series with HL60 cells [1] (setting [5]) was above 50000 nM. Further, the EC50 at RARα (RAR alpha LBD-GST) is above 1000 nM. The IC50 in the series with NB4 cells [3] (setting [6]) was above 50 µM.
`CCOC1Cc2ccc(NC(=O)c3ccc(C(=O)O)cc3)cc2C1` (stereo not drawn) [Compound 36g, 4-((2-Ethoxy-2,3-dihydro-1H-inden-5-yl)carbamoyl)benzoic acid] came in with a melting point above 250 °C. In addition, the IC50 in the series with HL60 cells [1] (setting [5]) is above 50000 nM. In addition, the concentration giving a half-maximal response (EC50) on RARα (RAR alpha LBD-GST) was above 1000 nM. Besides, the “CD11b (%) HL60” value in the series on HL60 cells [2] (50 μM) is listed as 5.82 (50 μM) %. Besides, the IC50 in the series on NB4 cells [3] (setting [6]) was determined as 22 µM. Also, the “CD11b (%) NB4” value in the series with NB4 cells [4] (20 μM) is recorded as 0.49 (20 μM) %.
Turning to `CC(C)C1Cc2ccc(NC(=O)c3ccc(C(=O)O)cc3)cc2C1` (stereo not drawn) [Compound 36h, 4-((2-Isopropyl-2,3-dihydro-1H-inden-5-yl)carbamoyl)benzoic acid], the melting point was above 250 °C. The IC50 in the series with HL60 cells [1] (setting [5]) was determined as 910 nM. Moreover, the 50% effective concentration (EC50) at RARα (RAR alpha LBD-GST) is 43 nM. Also, the IC50 in the series with NB4 cells [3] (setting [6]) came out at 2.61 µM.
The molecule `CC1=Cc2cc(NC(=O)c3ccc(C(=O)O)cc3)ccc2C1` [Compound 36i, 4-((2-Methyl-1H-inden-5-yl)carbamoyl)benzoic acid] showed a melting point above 250 °C. Besides, the IC50 in the series with HL60 cells [1] (setting [5]) is above 50000 nM. Besides, the EC50 at RARα (RAR alpha LBD-GST) stood at 14.1 nM. Besides, the IC50 with NB4 cells [3] (setting [6]) is above 50 µM.
The matching figures for `CC(C)C1=Cc2cc(NC(=O)c3ccc(C(=O)O)cc3)ccc2C1` [Compound 36j, 4-((2-Isopropyl-1H-inden-5-yl)carbamoyl)benzoic acid]: above 250 °C, 2370 nM, 3.53 nM and above 50 µM.
`CC1Cc2ccc(NC(=O)c3ccc(C(=O)O)cc3)cc2C1=O` (stereo not drawn) [Compound 36k, 4-((2-Methyl-3-oxo-2,3-dihydro-1H-inden-5-yl)carbamoyl)benzoic acid] registered a melting point above 250 °C. Moreover, in the series on HL60 cells [1] (setting [5]), the IC50 is 2660 nM. For the same molecule, the IC50 in the series with NB4 cells [3] (setting [6]) is above 50 µM.
`CC(C)C1Cc2ccc(NC(=O)c3ccc(C(=O)O)cc3)cc2C1=O` (stereo not drawn) [Compound 36l, 4-((2-Isopropyl-3-oxo-2,3-dihydro-1H-inden-5-yl)carbamoyl)benzoic acid] gave a melting point above 250 °C. Besides, the IC50 in the series with HL60 cells [1] (setting [5]) came to 2110 nM. Also, on RARα (RAR alpha LBD-GST), the half-maximal effective concentration (EC50) was 4.68 nM. The IC50 with NB4 cells [3] (setting [6]) worked out at 36.9 µM.
`COC1c2cc(NC(=O)c3ccc(C(=O)O)cc3)ccc2CC1C` (stereo not drawn) [Compound 36m, 4-((3-Methoxy-2-methyl-2,3-dihydro-1H-inden-5-yl)carbamoyl)benzoic acid] yielded a melting point above 250 °C. Besides, the IC50 in the series with HL60 cells [1] (setting [5]) was 430 nM. Moreover, the EC50 on RARα (RAR alpha LBD-GST) turned out to be 292 nM. In addition, the IC50 with NB4 cells [3] (setting [6]) is above 50 µM.
Take `CCOC1c2cc(NC(=O)c3ccc(C(=O)O)cc3)ccc2CC1C` (stereo not drawn) [Compound 36n, 4-((3-Ethoxy-2-methyl-2,3-dihydro-1H-inden-5-yl)carbamoyl)benzoic acid]: the melting point was above 250 °C. Also, the IC50 with HL60 cells [1] (setting [5]) was 800 nM. The concentration giving a half-maximal response (EC50) on RARα (RAR alpha LBD-GST) worked out at 146 nM. Also, the IC50 in the series on NB4 cells [3] (setting [6]) came to 8.51 µM.
The corresponding values for `COC1c2cc(NC(=O)c3ccc(C(=O)O)cc3)ccc2CC1C(C)C` (stereo not drawn) [Compound 36o, 4-((2-Isopropyl-3-methoxy-2,3-dihydro-1H-inden-5-yl)carbamoyl)benzoic acid] are above 250 °C, 2350 nM, 3.93 nM and above 50 µM.
The matching figures for `CCOC1c2cc(NC(=O)c3ccc(C(=O)O)cc3)ccc2CC1C(C)C` (stereo not drawn) [Compound 36p, 4-((3-Ethoxy-2-isopropyl-2,3-dihydro-1H-inden-5-yl)carbamoyl)benzoic acid]: above 250 °C, 1130 nM, 9.03 nM and 7.56 µM.
